Test results: patent US5068064A, “N-substituted lauramides, their preparation and compositions in which they are present” (Sanofi, priority 1989, dated 1991)
≈ marks a conversion by molar mass, not a printed value. Where a name gives a salt, the structure may show the parent alone.

Tests used:
[1] = system: Enterococcus faecium CIP 5855; assay: Percentage of bactericidal active principle, second method (5 min contact), E. faecium; assay type: cell-based; details: destruction of 99.99%
Excerpt: (§1) In the two methods, a bacterial inoculum is brought into contact with different dilutions of the product for a determined period of time.
(§2) When the contact period has ended, an aliquot of the mixture of bacterial suspension and product is taken and brought into contact with an agent for neutralizing the bacterial activity of the mixture, either in a solid medium or in a liquid medium. The bactericidal activity of the product, expressed either as a concentration or as a percentage of active principle, corresponds to an absence of bacterial growth.
(§3) The second method makes it possible to define a percentage of bactericidal or fungicidal active principle by means of a simplified and automated adaptation of Afnor standards NF T 72-150 and NF T 72-170. In this method, the bactericidal activity of the product is determined with and without interfering substances. It is based on assessing the destruction of 99.99% of the initial bacteria by the product in 5 minutes. The interfering substances are of the protein type and are chosen for the actual conditions of application of this type of product. The contact time between product and bacterial suspension is 5 minutes, the neutralization step is 10 minutes and subculture is effected in a liquid medium.
(§4) The chosen bacterial strains are:
(§5) The strains are maintained on Tryptic Soy Agar® (TSA) marketed by Difco.
(§6) The strains are harvested in a manner identical to the first method; these suspensions contain between 1.10^8 and 3.10^8 cells per milliliter. Appropriate dilutions make it possible to have a suspension containing 2 to 6.10^3 cells per milliliter.
(§7) The experiment is performed in microtiter plates; it comprises two steps. The first step, called the preliminary test, checks that the product is indeed neutralized. In the test proper, the different dilutions of the product are brought into contact with 2 to 6.10^3 cells per milliliter of the bacterial suspension in the second row of the microtiter plate. After a contact time of 5 minutes, an aliquot is transferred to the third row containing the neutralizer adapted to the product and to the strain. After a contact time of 10 minutes, aliquots are transferred to the last 5 rows containing Tryptic Soy Broth® (TSB) from Difco.
(§8) The interfering substances tested are a mixture of albumin and yeast extract. In the first row of the microplate, these proteins are brought into contact for 5 minutes with the different dilutions of the product. After this step, the same principle as above is applied: 5 minutes of contact with the germ, 10 minutes of contact with the neutralizer, transfer to TSB.

[2] = system: Escherichia coli CIP 54127; assay: Minimum bactericidal concentration, first method (30 min contact), E. coli; assay type: cell-based; details: CIP54127, 0.5 h, contact time 30 minutes
Excerpt: as §1, §2
(§9) The first method makes it possible to define a minimum bactericidal concentration (MBC) or minimum fungicidal concentration (MFC), expressed in μg/ml. The contact time between product and bacterial suspension is 30 minutes. The neutralizer is included in agar.
(§10) The CIP bacterial strains chosen for the study, which are available from the Institut Pasteur, are:
(§11) 3. Escherichia coli CIP 54127
as §5
(§12) After 24 hours of culture at 37° C., the microbial growth is harvested with the aid of glass beads and 10 ml of diluent containing 1 g of tryptone and 8.5 g of sodium chloride in 1000 ml of distilled water. The suspension formed is shaken and the percentage transmission of light at 620 nm is measured in a spectrophotometer:
(§13) The bacterial inoculum corresponds to a 1:20 dilution of this bacterial suspension.
(§14) Plates containing cupules receive different dilutions of the test product. These dilutions of the test product are brought into contact with the different bacterial suspensions using a multiple site inoculator. After a contact time of 30 minutes, aliquots are transferred with this inoculator to the surface of an agar medium (TSA) placed in Petri dishes containing an activity neutralizer, namely 20 g of lubrol W, 2.5 g of Tween 80, 2.5 g of sodium thiosulfate and 1% of egg yolk in 1000 ml of TSA (Difco). A control for the efficacy of the neutralizer is prepared for each test product by depositing an aliquot of the dilution of the test product on the surface of the culture medium. After drying, the corresponding inoculum is deposited in the same place. An inoculum control is prepared on agar medium with and without neutralizer. The results are read off after 48 hours of incubation at 37° C.
(§15) They indicate the minimum bactericidal concentrations (MBC) for strains 1, 2, 3 and 4 and the minimum fungicidal concentrations (MFC) for strain 5.

[3] = system: Staphylococcus aureus CIP 53154; assay: Minimum bactericidal concentration, first method (30 min contact), S. aureus; assay type: cell-based; details: CIP53154, 0.5 h, contact time 30 minutes
Excerpt: as §1, §2, §9, §10
(§16) 1. Staphylococcus aureus
as §5, §12, §13, §14, §15

[4] = system: Enterococcus faecium CIP 5855; assay: Minimum bactericidal concentration, first method (30 min contact), E. faecium; assay type: cell-based; details: CIP5855, 0.5 h, contact time 30 minutes
Excerpt: as §1, §2, §9, §10, §5, §12, §13, §14, §15

[5] = system: Candida albicans CIP 1180; assay: Minimum fungicidal concentration, first method (30 min contact), C. albicans; assay type: cell-based; details: CIP1180, 0.5 h, contact time 30 minutes
Excerpt: as §1, §2, §9, §14
The antifungal activity of the products according to the invention was also determined using the method described above. A representative strain of yeast was selected for the study: Candida albicans CIP 1180 (strain 5).
This is maintained on Sabouraud's Dextrose Agar marketed by Difco. The technique is identical to that described for studying the antibacterial activity. After 48 hours of culture at 37° C., the microbial growth is harvested with the aid of glass beads and 5 ml of diluent containing 1 g of tryptone and 8.5 g of sodium chloride in 1000 ml of distilled water; a further 5 ml of the diluent are then added. This suspension gives a percentage transmission of light at 620 nm of 2 to 3% in a spectrophotometer.
The inoculum corresponds to a 1:10 dilution of this microbial suspension. A 1:100 dilution of this suspension, observed between slide and cover glass through a No. 40 microscope objective, must show 10 cells per field, which corresponds to 1,000,000 yeasts per ml.
as §15

Product solubility = details: water
[6] = system: Candida albicans CIP 1180; assay: Percentage of fungicidal active principle, second method (5 min contact), C. albicans; assay type: cell-based
Excerpt: as §1, §2, §3, §7, §8
The antifungal activity of the products according to the invention was also determined with and without interfering substances using the method described above. The same strain was used as for the first technique, namely Candida albicans CIP 1180. It is harvested in an identical manner to that described in the first method.

[7] = system: Pseudomonas aeruginosa CIP A22; assay: Minimum bactericidal concentration, first method (30 min contact), P. aeruginosa; assay type: cell-based; details: CIPA22, 0.5 h, contact time 30 minutes
Excerpt: as §1, §2, §9, §10
4. Psuedomonas aeruginosa
as §5, §12, §13, §14, §15

[8] = system: Escherichia coli CIP 54127; assay: Percentage of bactericidal active principle, second method (5 min contact), E. coli; assay type: cell-based; details: destruction of 99.99%
Excerpt: as §1, §2, §3, §4, §11, §5, §6, §7, §8

[9] = system: Staphylococcus aureus CIP 53154; assay: Percentage of bactericidal active principle, second method (5 min contact), S. aureus; assay type: cell-based; details: destruction of 99.99%
Excerpt: as §1, §2, §3, §4, §16, §5, §6, §7, §8

[10] = system: Pseudomonas aeruginosa CIP A22; assay: Percentage of bactericidal active principle, second method (5 min contact), P. aeruginosa; assay type: cell-based; details: destruction of 99.99%
Excerpt: as §1, §2, §3, §4
4. Pseudomonas aeruginosa
as §5, §6, §7, §8

[11] = system: Mycobacterium smegmatis CIP 7326; assay: Percentage of bactericidal active principle, second method (5 min contact), M. smegmatis; assay type: cell-based; details: destruction of 99.99%
Excerpt: as §1, §2, §3, §4
5. Mycobacterium smegmatis
as §5, §6, §7, §8

[12] = Simple: without interfering substances
[13] = with proteins as interfering substances
[14] = Simple: without interfering substances, * activity limited to the zone indicated

Row | SMILES | Bactericidal activity, results in percentage of active principle, E. faecium [1, 12] | Bactericidal activity, results in percentage of active principle, E. faecium [1, 13] | MBC [2] [µg/mL] | MBC [3] [µg/mL] | MBC [4] [µg/mL] | MFC [5] [µg/mL] | solubility (Product solubility) [mg/mL] | Fungicidal activity, results in percentage of active principle, C. albicans [6, 12] | Fungicidal activity, results in percentage of active principle, C. albicans [6, 13] | MBC [7] [µg/mL] | Bactericidal activity, results in percentage of active principle, E. coli [8, 12] | Bactericidal activity, results in percentage of active principle, E. coli [8, 13] | Bactericidal activity, results in percentage of active principle, S. aureus [9, 14] | Bactericidal activity, results in percentage of active principle, S. aureus [9, 13] | Bactericidal activity, results in percentage of active principle, P. aeruginosa [10, 12] | Bactericidal activity, results in percentage of active principle, P. aeruginosa [10, 13] | Bactericidal activity, results in percentage of active principle, M. smegmatis [11, 13] | Bactericidal activity, results in percentage of active principle, M. smegmatis [11, 14]
1 | CCCCCCCCCCCC(=O)NCCN(C)Cc1ccccc1 [SR 45525] | 0.01 percentage of active principle | 0.5 percentage of active principle | 10 (≈ 28.9 µM) | 50 (≈ 144 µM) | 10 (≈ 28.9 µM) | 50 (≈ 144 µM) | > 50 | 0.05 percentage of active principle | 0.5 percentage of active principle | 50 (≈ 144 µM) | 0.005 percentage of active principle | 0.1 percentage of active principle | 0.05 percentage of active principle | 0.5 percentage of active principle | 0.005 percentage of active principle | 0.5 percentage of active principle | 0.1 percentage of active principle | 
2 | CCCCCCCCCCCC(=O)NCCCN(C)Cc1ccccc1 [SR 45583 A, N-(3-Benzylmethylaminopropyl)lauramide hydrochloride] | 0.01 percentage of active principle | 0.05 percentage of active principle | 10 | 50 | 10 | 50 | > 50 | 0.05 percentage of active principle | 0.1 percentage of active principle | 50 | 0.05 percentage of active principle | 0.1 percentage of active principle | 0.05 percentage of active principle | 0.5 percentage of active principle | 0.01 percentage of active principle | 0.5 percentage of active principle | 0.05 percentage of active principle | 0.01 percentage of active principle
